From ChEMBL document CHEMBL1132745, “Diphenylsulfone muscarinic antagonists: piperidine derivatives with high M2 selectivity and improved potency” (Bioorg Med Chem Lett, 2000)

Tests used:
[1] = target: Muscarinic acetylcholine receptor M3 (Homo sapiens, UniProt P20309); assay: Binding affinity against Muscarinic acetylcholine receptor M3
[2] = target: T1, Muscarinic acetylcholine receptor M1 (Homo sapiens, UniProt P11229); assay: Binding affinity against Muscarinic acetylcholine receptor M1
T1 sequence (P11229 whole entry): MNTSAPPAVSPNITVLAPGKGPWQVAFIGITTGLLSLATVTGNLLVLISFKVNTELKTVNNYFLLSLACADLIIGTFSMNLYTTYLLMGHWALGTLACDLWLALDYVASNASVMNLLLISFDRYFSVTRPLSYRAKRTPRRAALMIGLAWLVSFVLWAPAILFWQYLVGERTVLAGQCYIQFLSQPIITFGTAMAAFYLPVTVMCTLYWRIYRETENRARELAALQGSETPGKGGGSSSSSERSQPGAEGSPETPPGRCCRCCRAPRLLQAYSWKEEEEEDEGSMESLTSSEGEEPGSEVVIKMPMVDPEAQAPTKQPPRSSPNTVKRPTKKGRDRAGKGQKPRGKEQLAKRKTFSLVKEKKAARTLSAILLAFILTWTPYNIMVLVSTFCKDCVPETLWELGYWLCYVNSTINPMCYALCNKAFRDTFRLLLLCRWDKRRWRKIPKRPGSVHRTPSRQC

[3] = target: T2, Muscarinic acetylcholine receptor M4 (Homo sapiens, UniProt P08173); assay: Binding affinity against Muscarinic acetylcholine receptor M4
T2 sequence (P08173 whole entry): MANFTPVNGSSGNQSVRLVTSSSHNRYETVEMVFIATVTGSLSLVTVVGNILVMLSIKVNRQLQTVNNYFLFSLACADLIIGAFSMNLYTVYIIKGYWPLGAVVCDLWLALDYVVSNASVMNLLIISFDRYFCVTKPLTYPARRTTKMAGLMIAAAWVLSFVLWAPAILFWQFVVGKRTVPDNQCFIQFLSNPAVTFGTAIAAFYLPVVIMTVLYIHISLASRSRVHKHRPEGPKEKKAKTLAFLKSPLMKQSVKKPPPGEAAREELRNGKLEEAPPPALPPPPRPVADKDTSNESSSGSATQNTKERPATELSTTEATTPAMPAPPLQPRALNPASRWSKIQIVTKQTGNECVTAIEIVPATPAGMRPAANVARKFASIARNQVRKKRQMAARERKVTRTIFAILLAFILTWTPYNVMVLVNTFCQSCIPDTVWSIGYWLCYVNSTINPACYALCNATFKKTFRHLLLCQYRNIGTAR

[4] = target: T3, Muscarinic acetylcholine receptor M2 (Homo sapiens, UniProt P08172); assay: Binding affinity against Muscarinic acetylcholine receptor M2
T3 sequence (P08172 whole entry): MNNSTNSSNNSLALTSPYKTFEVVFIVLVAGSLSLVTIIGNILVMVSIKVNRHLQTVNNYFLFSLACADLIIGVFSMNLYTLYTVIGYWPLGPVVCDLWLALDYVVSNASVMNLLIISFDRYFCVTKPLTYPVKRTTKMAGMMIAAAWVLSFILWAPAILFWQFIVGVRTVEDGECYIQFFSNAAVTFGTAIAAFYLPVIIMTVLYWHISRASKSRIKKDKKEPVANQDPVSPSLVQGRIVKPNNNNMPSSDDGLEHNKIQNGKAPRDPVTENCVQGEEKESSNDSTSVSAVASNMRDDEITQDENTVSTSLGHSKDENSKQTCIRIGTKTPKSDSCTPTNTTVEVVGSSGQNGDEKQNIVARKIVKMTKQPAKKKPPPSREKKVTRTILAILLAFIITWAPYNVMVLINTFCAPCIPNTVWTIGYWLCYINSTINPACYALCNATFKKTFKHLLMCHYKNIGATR

[5] = target: T4, Muscarinic acetylcholine receptor M5 (Homo sapiens, UniProt P08912); assay: The compound was tested for the binding affinity against Muscarinic acetylcholine receptor M5
T4 sequence (P08912 whole entry): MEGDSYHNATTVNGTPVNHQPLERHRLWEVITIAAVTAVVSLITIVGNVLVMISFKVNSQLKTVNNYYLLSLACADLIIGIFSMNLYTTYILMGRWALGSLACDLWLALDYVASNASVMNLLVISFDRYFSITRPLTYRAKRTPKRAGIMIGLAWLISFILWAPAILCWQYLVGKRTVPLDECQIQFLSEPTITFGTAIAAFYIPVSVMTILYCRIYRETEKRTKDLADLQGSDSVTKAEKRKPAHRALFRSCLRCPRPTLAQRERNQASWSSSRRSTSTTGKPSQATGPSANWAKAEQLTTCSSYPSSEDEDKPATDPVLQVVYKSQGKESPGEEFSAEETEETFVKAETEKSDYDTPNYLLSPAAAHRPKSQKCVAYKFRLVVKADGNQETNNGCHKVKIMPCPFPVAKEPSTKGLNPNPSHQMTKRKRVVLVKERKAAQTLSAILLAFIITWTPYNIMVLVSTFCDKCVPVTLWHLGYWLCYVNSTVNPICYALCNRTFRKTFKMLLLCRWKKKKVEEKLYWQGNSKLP

Muscarinic acetylcholine receptor M3, sequence (P20309 whole entry): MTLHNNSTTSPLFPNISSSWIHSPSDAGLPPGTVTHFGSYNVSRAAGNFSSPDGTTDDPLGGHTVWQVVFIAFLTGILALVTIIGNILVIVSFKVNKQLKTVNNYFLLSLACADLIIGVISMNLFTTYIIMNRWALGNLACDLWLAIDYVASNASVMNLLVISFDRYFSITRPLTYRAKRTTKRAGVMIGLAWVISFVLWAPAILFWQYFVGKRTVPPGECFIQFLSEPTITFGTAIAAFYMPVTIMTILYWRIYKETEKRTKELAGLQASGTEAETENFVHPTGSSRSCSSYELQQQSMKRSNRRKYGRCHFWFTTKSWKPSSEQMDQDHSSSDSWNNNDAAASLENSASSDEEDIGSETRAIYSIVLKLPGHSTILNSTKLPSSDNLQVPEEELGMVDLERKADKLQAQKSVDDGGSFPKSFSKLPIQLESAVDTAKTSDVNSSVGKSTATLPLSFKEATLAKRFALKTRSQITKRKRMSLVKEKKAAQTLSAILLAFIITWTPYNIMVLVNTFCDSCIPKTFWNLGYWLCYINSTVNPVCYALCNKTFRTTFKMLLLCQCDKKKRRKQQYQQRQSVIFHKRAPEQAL

| Structure (SMILES) | Ki [1] [nM] | Ki [2] [nM] | Ki [3] [nM] | Ki [4] [nM] | Ki [5] [nM] |
| --- | --- | --- | --- | --- | --- |
| COc1ccc([S@@+]([O-])c2ccc(C(C#N)N3CCN(C4CCCCC4)CC3)cc2)cc1 (some centres not stated) | 29.4 | 112 | 14.8 | 2.78 | 309 |
| COc1ccc([S@+]([O-])c2ccc(C(=O)C3CCN(C4CCCCC4)CC3)cc2)cc1 | 20.1 | 69.5 | 15.2 | 10.8 |  |
| C=C(c1ccc(S(=O)(=O)c2ccc(OC)cc2)cc1)C1CCN(C2CCCCC2)CC1 | 0.48 | 2.8 | 0.33 | 0.17 |  |
| C=C(c1ccc(Sc2ccc(OC)cc2)cc1)C1CCN(C2CCCCC2)CC1 |  | 4.4 |  | 0.37 |  |
| COc1ccc(S(=O)(=O)c2ccc(C(=O)C3CCN(C4CCCCC4)CC3)cc2)cc1 | 13.8 | 31.1 | 9.05 | 3.07 |  |
| COc1ccc([S@+]([O-])c2ccc(C(C#N)C3CCN(C4CCCCC4)CC3)cc2)cc1 (some centres not stated) | 58.8 | 136 | 45.1 | 7.14 |  |
| COc1ccc([S+]([O-])c2ccc(C(C)C3CCN(C4CCCCC4)CC3)cc2)cc1 (configuration not stated) | 0.16 | 0.53 | 0.07 | 0.14 | 1.66 |
| COc1ccc([S@@+]([O-])c2ccc(C(C#N)C3CCN(C4CCCCC4)CC3)cc2)cc1 (some centres not stated) | 37 | 113 | 12.7 | 7.67 |  |
| C=C(c1ccc([S@@+]([O-])c2ccc(OC)cc2)cc1)C1CCN(C2CCCCC2)CC1 | 0.13 | 0.68 | 0.09 | 0.03 |  |
| COc1ccc(S(=O)(=O)c2ccc(C(C#N)C3CCN(C4CCCCC4)CC3)cc2)cc1 (configuration not stated) |  | 16.4 |  | 1.3 |  |
| COc1ccc([S@+]([O-])c2ccc(C(C#N)N3CCN(C4CCCCC4)CC3)cc2)cc1 (some centres not stated) |  | 253 | 18.4 | 17.3 |  |
| C=C(c1ccc([S@+]([O-])c2ccc(OC)cc2)cc1)C1CCN(C2CCCCC2)CC1 | 0.38 | 2.14 | 0.32 | 0.057 |  |
| COc1ccc([S+]([O-])c2ccc(C(C)N3CCN(C4CCCCC4)CC3)cc2)cc1 (configuration not stated) | 0.97 | 6 | 2.2 | 1 |  |
| COc1ccc(S(=O)(=O)c2ccc(C(C#N)N3CCN(C4CCCCC4)CC3)cc2)cc1 (configuration not stated) | 6.8 | 71.8 | 18.6 | 7.3 |  |
| COc1ccc([S@@+]([O-])c2ccc(C(=O)C3CCN(C4CCCCC4)CC3)cc2)cc1 | 27.8 | 104 | 17.9 | 3.58 |  |
